According to patent publication US11246813B2, “Composition for preventing hair loss or promoting hair development, comprising irone as active ingredient” (INDUSTRY-ACADEMIC COOPERATION FOUNDATION, YONSEI UNIVERSITY, priority 2017, dated 2022):

Assays:
Assay type in all cases: cell-based
[1] = system: human hair dermal papilla cells; test: MTT assay, cell viability and proliferation in human hair dermal papilla cells
Protocol: Human hair dermal papilla cells were purchased from PromoCell GmbH (Heidelberg, Germany). The human hair dermal papilla cells were cultured in an incubator at 37° C., 5% CO2 using HFDPC medium (PromoCell, Germany) with fetal bovine serum (FBS) and Dulbecco's modified Eagle's medium (DMEM; Gibco BRL, Gaithersburg, Md., USA). Due to the nature of the cells, cells at passages 2 to 5 were used for all experiments. The human hair dermal papilla cells were dispensed into 24-well plates to 1×10^5 cells/well, and then cultured for 24 hours in an incubator at 37° C., 5% CO2 so that the cells are stabilized. Treatment with samples at respective concentrations (0, 10, 20, 50, 100, 200, 400 μg/ml) was performed and culture was performed for 24 hours. Then, treatment with 100 ul of 3-(4,5-dimethylthiazol-2-yl)-2,5-diphenyltetrazolium bromide (MTT; Sigma Aldrich, St. Louis, USA) reagent at a concentration of […] was performed and culture was performed again for 4 hours. After removing the medium, the precipitate (formazan) was dissolved in DMSO and the absorbance was measured at a wavelength of 540 nm. A proliferation rate thereof was evaluated based on the absorbance of a control group containing only DMSO.

VEGF [2] = test: VEGF ELISA of culture solution of human hair dermal papilla cells; conditions: 20 μM, 24 hours, vs DMSO
Protocol: (§1) Human hair dermal papilla cells were purchased from PromoCell GmbH (Heidelberg, Germany). The human hair dermal papilla cells were cultured in an incubator at 37° C., 5% CO2 using HFDPC medium (PromoCell, Germany) with fetal bovine serum (FBS) and Dulbecco's modified Eagle's medium (DMEM; Gibco BRL, Gaithersburg, Md., USA). Due to the nature of the cells, cells at passages 2 to 5 were used for all experiments. The human hair dermal papilla cells were dispensed into 12-well plates to 3×10^4 cells/well, and then the culture solutions were treated with alpha-irone at 20 μM. DMSO was used as a negative control group. The alpha-irone-treated culture solutions were collected after 24 hours, and experiments were conducted using human VEGF ELISA Kit (Enzo Life Sciences, NY, USA), human IGF-1 ELISA kit (Enzo Life Sciences, NY, USA), and cAMP complete ELISA kit (Enzo Life Sciences, NY, USA), respectively, according to the manufacturers' protocol.

IGF-1 = IGF-1 ELISA of culture solution of human hair dermal papilla cells; conditions: 20 μM, 24 hours, vs DMSO
Protocol: as §1

cAMP = cAMP ELISA in human hair dermal papilla cells; conditions: 20 μM, 24 hours, vs DMSO
Protocol: as §1

PKA Cα = test: Western blot of PKA Cα in human hair dermal papilla cells; conditions: 20 μM
Protocol: (§2) The […] of human hair dermal papilla cells, obtained by performing treatment with alpha-irone at 20 μM and performing culture, was homogenized with a lysis buffer, and then centrifuged at 13,000×g for 20 minutes at 4° C. Protein quantification was performed by Bradford assay. 40 μg of the protein was electrophoresed on 10% SDS polyacrylamide gel and then transferred to nitrocellulose membranes. The protein was allowed to react with each of PKA Cα, β-catenin, β-actin, and GAPDH antibody (Cell Signaling Technology, Danvers, Mass., USA). Each protein's signal was visualized with a chemiluminescent detection system (Amersham), and then the band's thickness was quantified using the Quantity One Analysis Software (Bio-Rad Laboratories).

β-catenin = test: Western blot of β-catenin in human hair dermal papilla cells; conditions: 20 μM
Protocol: as §2

LEF = test: RT-PCR of LEF mRNA in human hair dermal papilla cells; conditions: 20 μM, 24 hours
Protocol: (§3) In the present invention, in order to identify activity of alpha-irone on human hair dermal papilla cells (DPCs), when the DPCs reached 70% to 80% confluency, treatment with alpha-irone at 20 μM was performed, and then culture was performed under a condition of 5% CO2 and 37° C. 24 hours after the treatment, the cells were collected and total RNA was extracted with Trizol Reagent (Gibco BRL, USA). The total RNA was quantified by absorbance measurement at 260 nm.
(§4) After isolation of RNA, cDNA was synthesized by performing reverse transcription using oligo dT primers and SuperScript reverse transcriptase (GIBCOBRL, Gaithersburg, Md., USA). PCR was performed using, as a template, cDNA obtained through reverse transcription and using, as primers, 5′ and 3′ flanking sequences of the gene's cDNA to be amplified. Here, required primers were obtained by making a request for synthesis with a company specializing in primer manufacturing (BIONEER CORPORATION, Korea) and used. To a mixture obtained by mixing of 5 μl of 10× reaction buffer [100 mM KCL, 20 mM Tris-HCl (pH 8.0), 2.5 mM MgCl2], 4 μl of 10 mM dNTP, and 1 μl each of 0.2 μM sense and antisense primers, were added 2 μl of the completed cDNA reaction mixture and 2.5 unit of Taq polymerase (Takara, Japan). Then, the volume was adjusted with 50 μl of distilled water, and PCR was performed using a PCR instrument. […]

Cyc-D = test: RT-PCR of Cyc-D mRNA in human hair dermal papilla cells; conditions: 20 μM, 24 hours
Protocol: as §3, §4

VEGF [3] = test: RT-PCR of VEGF mRNA in human hair dermal papilla cells; conditions: 20 μM, 24 hours
Protocol: as §3, §4

IGF = test: RT-PCR of IGF-1 mRNA in human hair dermal papilla cells; conditions: 20 μM, 24 hours
Protocol: as §3, §4

## CC(=O)/C=C/C1C(C)=CCC(C)C1(C)C (stereo not drawn) [alpha-irone, (E)-4-(2,5,6,6-tetramethylcyclohex-2-en-1-yl)but-3-en-2-one]
[1]; 24 hours culture, up to a concentration of 400 μg/ml, vs DMSO control
  cell viability (MTT assay): did not affect the cell viability
[1]; alpha-irone 10 μM
  increase of proliferation rate: 10.6%
[1]; alpha-irone 20 μM
  increase of proliferation rate: 37%
[1]; alpha-irone 50 μM
  increase of proliferation rate: 28%
VEGF [2]
  increase in concentration of VEGF: 27%
IGF-1
  increase in concentration of IGF-1: 18%
cAMP
  increase in cAMP concentration: 51%
PKA Cα
  increase in expression of PKA Cα protein: 52%
β-catenin
  increase in expression of β-catenin protein in the cell nucleus: 38%
LEF
  increase in mRNA expression of LEF: 348%
Cyc-D
  increase in mRNA expression of Cyc-D: 250%
VEGF [3]
  increase in mRNA expression of VEGF: 247%
IGF
  increase in mRNA expression of IGF: 217%
